This note sets out measurements from patent US4154830A, “Unsaturated derivatives of 7-acylamido-3-cephem-4-carboxylic acid” (Carlo Erba S.p.A., priority 1977, dated 1979).

Values after ≈ are worked out from the molar mass of the structure shown. Like-named read-outs stand apart in the source and are kept apart here. Some results are limits rather than exact numbers.

In general, MIC refers to the smallest concentration in the dilution series that meets the test's criterion for growth inhibition.

What all share (assay type): cell-based
Test [1] concerns Enterobacter aerogenes ATCC8308. The test is described as follows: minimal inhibiting concentration (MIC), Gram-negative bacteria. Conditions: Klebsiella aerogenes.
The next test concerns Diplococcus aureus 39/2. Nature of the test: minimal inhibiting concentration (MIC), Gram-positive bacteria.
Test [2] has as its system Staphylococcus aureus Smith. Described as above.
The test system of another test is Escherichia coli 1507. Nature of the test: minimal inhibiting concentration (MIC), Gram-negative bacteria.
The next test relates to Salmonella typhi Watson. The test is described as above. The following applies: Salmonella enterica.
Test [3] has as its system Klebsiella aerogenes 1522E. Described as above.
Test [4] deals with Shigella sonnei ATCC11060. The test is described as above.
Test [5] deals with Streptococcus β-haemolyticus C203. The test is described as follows: minimal inhibiting concentration (MIC), Gram-positive bacteria.
Test [6] concerns Proteus mirabilis ATCC9921. The test is described as follows: minimal inhibiting concentration (MIC), Gram-negative bacteria.
In test [7] the test system is Diplococcus pneumoniae ATCC6301. The test is described as follows: minimal inhibiting concentration (MIC), Gram-positive bacteria. The following applies: Streptococcus pneumoniae.
For test [8], the system named is Klebsiella pneumoniae ATCC 10031. The test is described as follows: minimal inhibiting concentration (MIC), Gram-negative bacteria. Conditions: ATCC10031.
Test [9] concerns Enterobacter cloacae 1321E. Described as above.
In the next test the test system is Escherichia coli G. The test is described as above.
For another test, the system named is Gram-negative bacteria. Nature of the test: activity against Gram-negative bacteria. The text has this:
The compounds of the invention may be administered, either to humans or to animals, in a variety of dosage forms, e.g., orally in the form of tablets, capsules, drops or syrups; rectally in the form of suppositories; parenterally, e.g. intravenously or intramuscolarly (as solutions or suspensions), with intravenous administration being preferred in emergency situation; by inhalation in the form of aerosols or solutions for nebulizers; intravaginally in the form, e.g. of bougies; or topically in the form of lotions, creams and ointments. The pharmaceutical or veterinary compositions containing the compounds of the invention may be prepared in a conventional way by employing the conventional carriers and/or diluents used for the other cephalosporins. Conventional carriers or diluents are, for example, water, gelatine, lactose, starches, magnesium stearate, talc, vegetable oils, cellulose and the like. Daily doses in the range of about 1 to about 100 mg per kg of body weight may be used, in various animal species, the exact dose depending on the age, weight and condition of the subject to be treated and on the frequency and route of administration. […]

The test system of a further test is Haemophylus influenzae. The test is described as follows: activity against Haemophylus influenzae in comparison with Cefazolin. The following applies: 7 strains tested. The text has this: (§1) The pharmaceutical or veterinary compositions containing the compounds of the invention may be prepared in a conventional way by employing the conventional carriers and/or diluents used for the other cephalosporins. Conventional carriers or diluents are, for example, water, gelatine, lactose, starches, magnesium stearate, talc, vegetable oils, cellulose and the like.

Test [10] relates to 60 strains of Gram-negative microorganisms comprising Klebsiella, Escherichia coli, Proteus mirabilis and Proteus vulgaris. Nature of the test: activity on a series of 60 strains of Gram-negative microorganisms in comparison with Cefazolin.
Excerpt: as §1

The test system of the next test is staphylococci. Nature of the test: activity against staphylococci compared with Cefazolin.
Excerpt: as §1

For test [11], the system named is streptococci (including diplococci). Nature of the test: activity against streptococci (including diplococci) compared with Cefazolin.
Excerpt: as §1

Setting [12] is: Escherichia coli G, read-out: MIC.

As to `Cn1nnnc1SCC1=C(C(=O)O)N2C(=O)C(NC(=O)[C@H](O)c3ccccc3)[C@H]2SC1` (stereo partly drawn) [Cefamandole, 7-D-mandelamido-3-{[(1-methyl-1H-tetrazol-5-yl)-thio]-methyl}-3-cephem-4-carboxylic acid, reference compound], the MIC in test [1] was found to be 1.6 µg/mL (≈ 3.46 µM); against Diplococcus aureus 39/2 it was 1.2 µg/mL (≈ 2.59 µM); in test [2], 0.15 µg/mL (≈ 0.324 µM); against Escherichia coli 1507 it was 0.8 µg/mL (≈ 1.73 µM); in the test on Salmonella typhi Watson, 0.6 µg/mL (≈ 1.3 µM); in test [3], 0.4 µg/mL (≈ 0.865 µM). In addition, the minimal inhibitory concentration (MIC) in [4] was found to be 2.35 µg/mL (≈ 5.08 µM); in [5] it was 0.019 µg/mL (≈ 0.0411 µM); in test [6], 1.6 µg/mL (≈ 3.46 µM); in test [7], 0.019 µg/mL (≈ 0.0411 µM); in [8], 0.15 µg/mL (≈ 0.324 µM); in test [9] it was 1.6 µg/mL (≈ 3.46 µM). The compound also displayed an MIC against Escherichia coli G (Escherichia coli) of 2.35 µg/mL (≈ 5.08 µM).

As for `Cc1nnc(SCC2=C(C(=O)O)N3C(=O)[C@@H](NC(=O)Cn4cnnn4)[C@H]3SC2)s1` [Cefazolin, 7-(1-(1H)-tetrazolylacetamido)-3-[2-(5-methyl-1,3,4-thiadiazolyl)-thiomethyl]-3-cephem-4-carboxylic acid, reference compound], the minimal inhibitory concentration (MIC) is 1.2 µg/mL (≈ 2.64 µM) in test [1]; 0.6 µg/mL (≈ 1.32 µM) against Diplococcus aureus 39/2; 0.05 µg/mL (≈ 0.11 µM) in test [2]; 1.6 µg/mL (≈ 3.52 µM) with Escherichia coli 1507; 1.6 µg/mL (≈ 3.52 µM) against Salmonella typhi Watson; 1.1 µg/mL (≈ 2.42 µM) in test [3]. The MIC in test [4] worked out at 1.6 µg/mL (≈ 3.52 µM); in test [5] it was 0.05 µg/mL (≈ 0.11 µM); in test [6], 6.2 µg/mL (≈ 13.6 µM); in [7], 0.05 µg/mL (≈ 0.11 µM); in test [8] it was 0.8 µg/mL (≈ 1.76 µM); in test [9] it was 3.1 µg/mL (≈ 6.82 µM). For the same compound, in the test with Escherichia coli G (setting [12]), the MIC was 1.6 µg/mL (≈ 3.52 µM).

For `Cc1nnc(SCC2=C(C(=O)O)N3C(=O)C(NC(=O)CSCC#N)C3SC2)s1` (stereo not shown) [K 9227, 7-[(cyanomethyl-thio)-acetamido]-3-[2-(5-methyl-1,3,4-thiadiazolyl)-thiomethyl]-3-cephem-4-carboxylic acid, reference compound], the MIC in [1] was found to be 1.2 µg/mL (≈ 2.62 µM); against Diplococcus aureus 39/2, 0.2 µg/mL (≈ 0.437 µM); in [2], 0.05 µg/mL (≈ 0.109 µM); in the test with Escherichia coli 1507, 1.6 µg/mL (≈ 3.5 µM); in the test with Salmonella typhi Watson, 0.8 µg/mL (≈ 1.75 µM); in test [3] it was 1.6 µg/mL (≈ 3.5 µM). Also, the minimum inhibitory concentration (MIC) in [4] was 1.6 µg/mL (≈ 3.5 µM); in test [5], 0.025 µg/mL (≈ 0.0546 µM); in test [6] it was 12.5 µg/mL (≈ 27.3 µM); in [7], 0.4 µg/mL (≈ 0.874 µM); in test [8] it was 0.4 µg/mL (≈ 0.874 µM); in test [9], 3.1 µg/mL (≈ 6.77 µM). Moreover, the minimal inhibitory concentration (MIC) in the test on Escherichia coli G (setting [12]) came to 3.1 µg/mL (≈ 6.77 µM).

As for `Cn1nnnc1SCC1=C(C(=O)O)N2C(=O)C(NC(=O)CSCC#N)C2SC1` (stereo not shown) [K 10299, 7-[(cyanomethyl-thio)-acetamido]-3-[5-(1-methyl-1,2,3,4-tetrazolyl)-thiomethyl]-3-cephem-4-carboxylic acid, reference compound], the MIC was 0.6 µg/mL (≈ 1.36 µM) in [1]; 0.4 µg/mL (≈ 0.906 µM) in the test with Diplococcus aureus 39/2; 0.075 µg/mL (≈ 0.17 µM) in test [2]; 0.8 µg/mL (≈ 1.81 µM) with Escherichia coli 1507; 0.2 µg/mL (≈ 0.453 µM) in the test on Salmonella typhi Watson; 0.8 µg/mL (≈ 1.81 µM) in test [3]. In addition, the MIC amounted to 1.6 µg/mL (≈ 3.62 µM) in test [4]; 0.037 µg/mL (≈ 0.0838 µM) in test [5]; 6.2 µg/mL (≈ 14 µM) in test [6]; 0.2 µg/mL (≈ 0.453 µM) in test [7]; 0.2 µg/mL (≈ 0.453 µM) in [8]; 1.6 µg/mL (≈ 3.62 µM) in test [9]. For the same compound, the minimal inhibitory concentration (MIC) with Escherichia coli G (setting [12]) was determined as 0.8 µg/mL (≈ 1.81 µM).

As for `Cn1nnnc1SCC1=C(C(=O)O)N2C(=O)C(NC(=O)CS/C=C/C(N)=O)C2SC1` (stereo not drawn) [K 11457, 7-[β-carboxamido-ethylene(trans)-thio-acetamido]-3-[(1-methyl-1,2,3,4-tetrazol-5-yl)-thiomethyl]-3-cephem-4-carboxylic acid], the MIC in [1] is 0.4 µg/mL (≈ 0.848 µM); in the test with Diplococcus aureus 39/2, 0.4 µg/mL (≈ 0.848 µM); in [2], 0.1 µg/mL (≈ 0.212 µM); against Escherichia coli 1507, 0.4 µg/mL (≈ 0.848 µM); against Salmonella typhi Watson it was 0.2 µg/mL (≈ 0.424 µM); in [3], 0.2 µg/mL (≈ 0.424 µM). The minimum inhibitory concentration (MIC) in test [4] worked out at 1.6 µg/mL (≈ 3.39 µM); in test [5] it was 0.025 µg/mL (≈ 0.053 µM); in test [6] it was 3.1 µg/mL (≈ 6.57 µM); in test [7], 0.025 µg/mL (≈ 0.053 µM); in test [8], 0.15 µg/mL (≈ 0.318 µM); in [9] it was 1.6 µg/mL (≈ 3.39 µM). In addition, the minimum inhibitory concentration (MIC) in the test on Escherichia coli G (setting [12]) stood at 0.4 µg/mL (≈ 0.848 µM).

For `Cn1nnnc1SCC1=C(C(=O)O)N2C(=O)C(NC(=O)CS/C=C\C(N)=O)C2SC1` (stereo not drawn) [K 13031, 7-[β-carboxamido-ethylene(cis)-thio-acetamido]-3-[(1-methyl-1,2,3,4-tetrazol-5-yl)-thiomethyl]-3-cephem-4-carboxylic acid], the minimal inhibitory concentration (MIC) came out at 0.3 µg/mL (≈ 0.636 µM) in [1]; 0.2 µg/mL (≈ 0.424 µM) in the test with Diplococcus aureus 39/2; 0.1 µg/mL (≈ 0.212 µM) in test [2]; 0.4 µg/mL (≈ 0.848 µM) with Escherichia coli 1507; 0.2 µg/mL (≈ 0.424 µM) in the test with Salmonella typhi Watson; 0.2 µg/mL (≈ 0.424 µM) in test [3]. In addition, the MIC in test [4] was 0.3 µg/mL (≈ 0.636 µM); in test [5] it was < 0.012 µg/mL; in test [6], 0.8 µg/mL (≈ 1.7 µM); in test [7] it was 0.012 µg/mL (≈ 0.0254 µM); in test [8] it was 0.2 µg/mL (≈ 0.424 µM); in test [9] it was 0.8 µg/mL (≈ 1.7 µM). Also, the MIC in the test with Escherichia coli G (setting [12]) was determined as 0.8 µg/mL (≈ 1.7 µM).

`Cn1nnnc1SCC1=C(C(=O)O)N2C(=O)C(NC(=O)CS/C=C\C#N)C2SC1` (stereo not drawn) [K 13101, 7-[β-cyano-ethylene(cis)-thio-acetamido]-3-[(1-methyl-1,2,3,4-tetrazol-5-yl)-thiomethyl]-3-cephem-4-carboxylic acid]: the “times more active than Cefazolin” value with Gram-negative bacteria was “about 9.6 times”; in the test with Haemophylus influenzae, “about 6 times”; with staphylococci, “about 2 times”; in [11], “about 4.2 times”. Further, the MIC was found to be 0.2 µg/mL (≈ 0.441 µM) in test [1]; 0.14 µg/mL (≈ 0.309 µM) against Diplococcus aureus 39/2; 0.025 µg/mL (≈ 0.0551 µM) in test [2]; 0.1 µg/mL (≈ 0.22 µM) with Escherichia coli 1507; 0.07 µg/mL (≈ 0.154 µM) with Salmonella typhi Watson; 0.1 µg/mL (≈ 0.22 µM) in test [3]. The minimum inhibitory concentration (MIC) in test [4] was found to be 0.8 µg/mL (≈ 1.76 µM); in test [5], 0.012 µg/mL (≈ 0.0265 µM); in [6] it was 0.4 µg/mL (≈ 0.882 µM); in [7], 0.012 µg/mL (≈ 0.0265 µM); in test [8], 0.1 µg/mL (≈ 0.22 µM); in test [9], 0.56 µg/mL (≈ 1.23 µM). Moreover, the MIC with Escherichia coli G (setting [12]) amounted to 0.14 µg/mL (≈ 0.309 µM). In test [10], the “activity in comparison with Cefazolin” value is reported as “always found to be more active than Cefazolin”.

In the case of `N#C/C=C\SCC(=O)NC1C(=O)N2C(C(=O)O)=C(CSc3nncs3)CSC12` (stereo not drawn) [K 13107, 7-[β-cyano-ethylene(cis)-thio-acetamido]-3-[(1,3,4-thiadiazol-2-yl)-thiomethyl]-3-cephem-4-carboxylic acid], the MIC in test [1] was 0.4 µg/mL (≈ 0.878 µM); in the test on Diplococcus aureus 39/2 it was 0.14 µg/mL (≈ 0.307 µM); in [2], 0.025 µg/mL (≈ 0.0549 µM); in the test on Escherichia coli 1507, 0.57 µg/mL (≈ 1.25 µM); against Salmonella typhi Watson, 0.2 µg/mL (≈ 0.439 µM); in [3] it was 0.28 µg/mL (≈ 0.615 µM). Besides, the minimal inhibitory concentration (MIC) was 1.6 µg/mL (≈ 3.51 µM) in test [4]; < 0.006 µg/mL in [5]; 0.4 µg/mL (≈ 0.878 µM) in test [6]; < 0.006 µg/mL in [7]; 0.2 µg/mL (≈ 0.439 µM) in [8]; 1.6 µg/mL (≈ 3.51 µM) in test [9]. Moreover, the minimum inhibitory concentration (MIC) in the test on Escherichia coli G (setting [12]) worked out at 0.57 µg/mL (≈ 1.25 µM).
